`CCCCCCOc1ccc(C=O)cc1OC` and `CCCCOc1cc(C=O)ccc1OC` cannot be ordered by melting point: 38 to 42 °C for the first, 39 to 41 °C for the second.

Compared with `N#Cc1cc(N)ccc1Oc1ccc(C(F)(F)F)cc1`, `CC(CC(=O)O)c1cccc(C(F)(F)F)c1` (stereo not drawn) is higher in melting point: 75 to 77 °C for the first, 83 to 85 °C for the second.

First: c1cncc(CNc2nc3ccccc3[nH]2)c1
Second: CCc1cc(=O)[nH]c(-c2ccccc2)n1
The melting point of the first is higher: 177 to 179 °C for the first, 162 to 164 °C for the second.

`O=C1CN(Cc2ccnc(Cl)c2)CCN1` and `O=C1CN(Cc2ccc(Br)cc2F)CCN1` cannot be ordered by melting point: 143 to 145 °C for the first, 142 to 144 °C for the second.

Compared with `Cc1cc(C(=O)CCl)c(C)n1-c1cccc(Cl)c1`, `CC(C)C(=O)Nc1ccc(Cl)c(C(=O)O)c1` is higher in melting point: 116 to 118 °C for the first, 229 to 231 °C for the second.

First: COC(=O)CC1CCCCC1=NO (stereo not drawn)
Second: Cc1cc(NC(=O)C2CCCCC2C(=O)O)[nH]n1 (stereo not drawn)
The melting point of the first is lower: 74 to 76 °C for the first, 114 to 116 °C for the second.

First: CC(=O)NC=C(Cl)Cl
Second: CC(N)=C(C#N)C(=O)O
The melting point of the first is lower: 85 to 87 °C for the first, 319 to 321 °C for the second.

Compared with `NC(=NO)c1cccnc1N1CCCCC1`, `O=S(=O)(c1ccc(O)cc1)N1CCCCC1` is lower in melting point: 149 to 151 °C for the first, 130 to 132 °C for the second.

Compared with `Nc1ccc(-n2cnnn2)cc1`, `Cc1ccc(N)cc1-n1cnnn1` is lower in melting point: 140 to 142 °C for the first, 113 to 115 °C for the second.

Compared with `NCc1cc[nH]n1`, `NC(=O)CCCOc1ccc(F)cc1` is higher in melting point: 58 to 60 °C for the first, 125 to 127 °C for the second.

First: O=C1CN(C2CCCC2)C(=O)N1
Second: O=c1[nH]c2c(c(=O)[nH]1)CCCC2
The melting point of the first is lower: 148 to 150 °C for the first, 304 to 306 °C for the second.

First: Nc1cc(Cl)c(S(N)(=O)=O)cc1[N+](=O)[O-]
Second: O=C1C=CC(=O)N1c1cc([N+](=O)[O-])ccc1Cl
The melting point of the first is higher: 257 to 259 °C for the first, 73 to 75 °C for the second.

First: O=C(O)CNC(=O)c1cccc(F)c1
Second: O=C(O)C(=O)Nc1ccc(Br)cc1C(F)(F)F
The melting point of the first is higher: 153 to 155 °C for the first, 116 to 118 °C for the second.

First: CC(=O)c1ccc(S(N)(=O)=O)cc1
Second: CC1CN(S(=O)(=O)c2ccc(C(=O)O)cc2)CC(C)O1 (stereo not drawn)
The melting point of the first is lower: 178 to 180 °C for the first, 268 to 270 °C for the second.

First: CCc1sc(N)c(C(N)=O)c1C
Second: Cc1c(F)ccc2sc(N)nc12
The melting point of the first is lower: 134 to 136 °C for the first, 174 to 176 °C for the second.

First: O=CN1CCN(S(=O)(=O)Cl)CC1
Second: Cn1cnc([N+](=O)[O-])c1S(=O)(=O)Cl
The melting point of the first is higher: 103 to 105 °C for the first, 100 to 102 °C for the second.

Compared with `Cn1nnnc1Sc1ccc(Br)cc1N`, `CCc1nc2cc(N)ccc2o1` is lower in melting point: 148 to 150 °C for the first, 69 to 71 °C for the second.

Compared with `CC(=O)N1CCC(O)C1` (stereo not drawn), `NC(=O)N1CCCC(C(=O)O)C1` (stereo not drawn) is higher in melting point: 77 to 79 °C for the first, 181 to 185 °C for the second.

First: Cc1c(NC(=O)C(C)Cl)cccc1[N+](=O)[O-] (stereo not drawn)
Second: Cc1c(N2CCOC2=O)cccc1[N+](=O)[O-]
The melting point of the first is higher: 120 to 122 °C for the first, 67 to 69 °C for the second.

First: O=C(O)CN(CCCCCCN(CC(=O)O)CC(=O)O)CC(=O)O
Second: Cc1cc(Cl)c(O)cc1OCC(=O)O
The melting point of the first is higher: 237 to 241 °C for the first, 131 to 133 °C for the second.

First: COCc1ccsc1C(=O)O
Second: NC(=O)c1ccsc1NC(=O)CCCl
The melting point of the first is lower: 119 to 121 °C for the first, 171 to 173 °C for the second.

First: O=[N+]([O-])c1ccc2c(c1)S(=O)(=O)C=C2
Second: Nc1snc2ccc([N+](=O)[O-])cc12
The melting point of the first is lower: 179 to 181 °C for the first, 198 to 200 °C for the second.

First: Cc1sc2nc(C(C)Cl)[nH]c(=O)c2c1C (stereo not drawn)
Second: Cc1ccccc1-n1c(Cl)nc2ccccc2c1=O
The melting point of the first is lower: 215 to 217 °C for the first, 298 to 300 °C for the second.

First: CC(C)(O)c1ccc(Br)cc1
Second: CCC(NC(=O)OC(C)(C)C)c1ccccc1O (stereo not drawn)
The melting point of the first is lower: 42 to 44 °C for the first, 111 to 113 °C for the second.

First: Cc1ccc(C(=O)O)cc1S(C)(=O)=O
Second: Cc1c(C(=O)O)c(=O)oc2ccccc12
The melting point of the first is higher: 209 to 211 °C for the first, 163 to 165 °C for the second.

First: CC(=O)c1cc2nc(C)ccc2o1
Second: Cc1csc(Sc2c(N)cccc2Cl)n1
The melting point of the first is lower: 119 to 121 °C for the first, 132 to 134 °C for the second.

First: Nc1nc(-c2ccc3c(c2)CC(=O)N3)cs1
Second: O=C1COc2cc(F)ccc2N1
The melting point of the first is higher: 249 to 251 °C for the first, 206 to 208 °C for the second.

First: Nc1cnn(CC(=O)NCCO)c1
Second: O=C(O)/C=C/c1cnn(Cc2ccccc2)c1
The melting point of the first is lower: 98 to 100 °C for the first, 118 to 120 °C for the second.

First: O=C(O)C1CC1c1ccncc1 (stereo not drawn)
Second: CC1C(=O)NCCN1C(=O)c1cccs1 (stereo not drawn)
The melting point of the first is higher: 228 to 230 °C for the first, 129 to 131 °C for the second.

First: N#Cc1c(Cl)nc(Cl)c(Cl)c1Cl
Second: Nc1nc2cc(F)c(F)cc2[nH]1
The melting point of the first is higher: 148 to 150 °C for the first, 144 to 146 °C for the second.

First: NC(=S)CCc1ccccc1
Second: O=C(O)c1cc(C2CC2)nc2c1cnn2Cc1ccccc1
The melting point of the first is lower: 82 to 84 °C for the first, 209 to 211 °C for the second.

First: O=C(CCl)Nc1ccccc1OC(F)F
Second: COc1cccc(C(=O)O)c1OC(F)F
The melting point of the first is lower: 92 to 94 °C for the first, 152 to 154 °C for the second.

First: CC(N)c1cccc(S(N)(=O)=O)c1 (stereo not drawn)
Second: CC(Oc1ccc(C#N)cc1)C(=O)O (stereo not drawn)
The melting point of the first is lower: 27 to 29 °C for the first, 158 to 160 °C for the second.

Compared with `Sc1nnc(-c2ccccc2)c(-c2ccccc2)n1`, `COc1ccc(C(=O)C(C)Br)c(OC)c1` (stereo not drawn) is lower in melting point: 222 to 224 °C for the first, 66 to 68 °C for the second.

Compared with `O=C1CCC2(CC1)NC(=O)NC2=O`, `O=C1CCCCc2c[nH]cc21` is lower in melting point: 199 to 201 °C for the first, 64 to 66 °C for the second.

Compared with `CCOc1cc(C(=O)O)cc(Cl)c1O`, `CN1CCC(C(=O)O)CC1=O` (stereo not drawn) is lower in melting point: 204 to 206 °C for the first, 163 to 165 °C for the second.

`Cc1csc(CC(N)=NO)n1` showed a melting point of 126 to 128 °C.
